Laboratory results: patent US20240238201A1, “LIPOSOME CARRIER-BASED MULTI-TARGET COMPLEX, DRUG DELIVERY PLATFORM CONTAINING THE SAME, AND APPLICATION THEREOF” (HANGZHOU XINGAO BIOTECHNOLOGY CO., LTD., priority 2021, published 2024)

What was measured:
[1] = system: mouse breast cancer cell line 4T1; experiment: Subcutaneous graft tumors of mouse breast cancer cell line 4T1 in BalB/C mice, with lung metastasis nodules; type: in vivo; details: for Average tumor weight (g) / Average tumor suppression rate (%) / Number of metastatic lung nodules: 4T1 in BalB/C mice; for Average tumor weight (g) / Average tumor suppression rate (%): intraperitoneal once a day for 21 days; for Average tumor weight (g): doses of Table 1, n = 10, mean ± SD; for Average tumor suppression rate (%): doses of Table 1, vs negative control; for Number of metastatic lung nodules: lungs after 21 days of dosing, negative control 35; for number of lung tumor nodules compared with the model group (in words): 4T1 breast cancer lung metastasis, lungs fixed with 4% paraformaldehyde
Protocol: (§1) Specie and strain: BalB/C ordinary mice and C57BL/6 ordinary mice.
(§2) Route of administration: intraperitoneal injection.
(§3) Dose of the novel multi-target immune complex: 200 μL/each;
(§4) Dosing frequency: once a day for 21 consecutive days;
(§5) Number of animals per group: 10.
(§6) Used herein are mouse colorectal cancer cell line CT26, mouse breast cancer cell line 4T1 and mouse melanoma cell line B16F10, which were purchased from the cell bank of Chinese Academy of Sciences.
(§7) Cancer cells were cultured, passaged, collected at the logarithmic phase of cells, and prepared into a cell suspension at a concentration of (1.0×10^7) per ml. Mice were injected with 0.2 ml of the cell suspension at the axilla of the right forelimb (cell number 2.0×10^6 cells/each), and tumorigenicity was successful in about 8 days.
(§8) These mice were randomly divided into 11 groups equally, namely, group A: negative control group (PBS group), group B: positive control (cGAMP) group (dose: 10 mg/kg), group C: ENPP1-YZ1 group (dose: 5 mg/kg), group D: ENPP1-YZ2 group (dose: 5 mg/kg), group E: anti-PD-L1 VHH group (dose: 2.5 mg/kg), group F: anti-CD47 VHH group (dose: 2.5 mg/kg), group G: complex I group, group H: complex II group, group I: complex III group, group J: complex IV group, and group K: complex V group. The mice were administered once a day for 21 days. After 21 days, the mice were executed, the tumor weight was weighed, and the tumor inhibition rate was calculated by [1-average tumor weight of experimental groups (groups B, C, D, E, F, G, H, I, J, and K)/average tumor weight of group A]×100%.
(§9) The mouse colorectal cancer cell line CT26 was prepared and injected into BalB/C ordinary mice. The mouse breast cancer cell line 4T1 was prepared and injected into BalB/C ordinary mice. The melanoma cell line B16F0 was prepared and injected into C57BL/6 ordinary mice. The anti-tumor effects of different drugs were observed.
(§10) Data were expressed as x±s and processed using a SPSS 10.0 software. One-way ANOVA test was used to compare the significance of the differences in tumor weight between groups, with a significance level a=0.05.
Dissections were performed on mice that had been executed for the 4T1 breast cancer study, where the lung tissues were carefully peeled off and photographed for observation after fixation with 4% paraformaldehyde. It could be clearly seen that the lungs of the mice in the model group were black and existed multiple white tumor nodules with various sizes on the surface. […] By statistical analysis of the tumor nodules in the lung tissues of mice, the results of the efficacy of inhibiting the lung metastasis of breast cancer cells were shown in Table 3.

[2] = system: murine colorectal cancer cell CT26; experiment: Subcutaneous graft tumors of murine colorectal cancer cell CT26 in BalB/C mice; type: in vivo, mouse; details: intraperitoneal once a day for 21 days; for Average tumor weight (g): doses of Table 1, n = 10, mean ± SD; for Average tumor suppression rate (%): doses of Table 1, vs negative control
Protocol: as §1, §2, §3, §4, §5, §6, §7, §8, §9, §10

[3] = system: mouse melanoma cell line B16F0; experiment: Subcutaneous graft tumors of mouse melanoma cell line B16F0 in C57BL/6 mice; type: in vivo; details: intraperitoneal once a day for 21 days; for Average tumor weight (g): doses of Table 1, n = 10, mean ± SD; for Average tumor suppression rate (%): doses of Table 1, vs negative control
Protocol: as §1, §2, §3, §4, §5, §6, §7, §8, §9, §10

2-[(4-methyl-(thiazolo[4,5-B]pyridinyl)-2-thio)methyl]-7-fluoro quinazoline-4(3H)-one [ENPP1-YZ2]
Average tumor weight (g) [1]: 0.852 ± 0.223 (g)
Average tumor suppression rate (%) [1]: 62.5%
Number of metastatic lung nodules [1]: 20
Average tumor weight (g) [2]: 0.805 ± 0.218 (g)
Average tumor suppression rate (%) [2]: 64.5%
Average tumor weight (g) [3]: 0.926 ± 0.227 (g)
Average tumor suppression rate (%) [3]: 61.2%

COc1ccc2[nH]c(SCc3nc4cc(F)ccc4c(=O)[nH]3)nc2n1 [ENPP1-YZ1, 2-[(5-methoxy-(imidazo[4,5-B]pyridinyl)-2-thio)methyl]-7-fluoroquinazoline-4(3H)-one]
Average tumor weight (g) [1]: 0.898 ± 0.136 (g)
Average tumor suppression rate (%) [1]: 60.5%
Number of metastatic lung nodules [1]: 21
Average tumor weight (g) [2]: 0.816 ± 0.203 (g)
Average tumor suppression rate (%) [2]: 63.9%
Average tumor weight (g) [3]: 0.943 ± 0.208 (g)
Average tumor suppression rate (%) [3]: 60.5%

Nc1nc2c(ncn2[C@@H]2O[C@@H]3COP(=O)(O)O[C@H]4[C@@H](O)[C@H](n5cnc6c(N)ncnc65)O[C@@H]4COP(=O)(O)O[C@@H]2[C@@H]3O)c(=O)[nH]1 [cGAMP, cyclic dinucleotide 2′,3′-cGAMP, reference compound]
number of lung tumor nodules compared with the model group (in words) [1]: a decrease in the number of tumor nodules
Average tumor weight (g) [1]: 0.775 ± 0.221 (g)
Average tumor suppression rate (%) [1]: 65.9%
Number of metastatic lung nodules [1]: 12
Average tumor weight (g) [2]: 0.706 ± 0.152 (g)
Average tumor suppression rate (%) [2]: 68.8%
Average tumor weight (g) [3]: 0.808 ± 0.137 (g)
Average tumor suppression rate (%) [3]: 66.1%

B1: Anti-PD-L1 VHH: anti-PD-L1 nanobody, SEQ ID NO: 1, 6His-tagged, expressed in E. coli (protein)
VHH: QVQLQESGGGLVQTGGSLRLSCAASGSTVSSSMMAWWRQTPGNQRELVALVASGNNTNYVDSVKGRFTVSRDNAKNTMYLQMNSLKPEDTAVYYCRILSVNGIWYWGQGTQVTVSS
modifications: 6His tag; Aritifical sequence
number of lung tumor nodules compared with the model group (in words) [1]: a small decrease in the number of tumor nodules
Average tumor weight (g) [1]: 1.752 ± 0.214 (g)
Average tumor suppression rate (%) [1]: 22.9%
Number of metastatic lung nodules [1]: 27
Average tumor weight (g) [2]: 1.735 ± 0.206 (g)
Average tumor suppression rate (%) [2]: 23.4%
Average tumor weight (g) [3]: 1.758 ± 0.212 (g)
Average tumor suppression rate (%) [3]: 26.3%

B2: Anti-CD47 VHH: anti-CD47 nanobody, SEQ ID NO: 2, 6His-tagged, expressed in E. coli (protein)
VHH: QVQLVESGGGLVEPGGSLRLSCAASGIIFKINDMGWYRQAPGKRREWVAASTGGDEAIYRDSVKDRFTISRDAKNSVFLQMNSLKPEDTAVYYCTAVISTDRDGTEWRRYWGQGTQVTVSS
modifications: 6His tag
number of lung tumor nodules compared with the model group (in words) [1]: a small decrease in the number of tumor nodules
Average tumor weight (g) [1]: 1.805 ± 0.176 (g)
Average tumor suppression rate (%) [1]: 20.2%
Number of metastatic lung nodules [1]: 25
Average tumor weight (g) [2]: 1.807 ± 0.187 (g)
Average tumor suppression rate (%) [2]: 20.2%
Average tumor weight (g) [3]: 1.809 ± 0.217 (g)
Average tumor suppression rate (%) [3]: 24.2%
